Test results: patent US20240101699A1, “MODULATION OF CD46 CELL SURFACE EXPRESSION AND THERAPEUTIC USE THEREOF” (The Regents of the University of California, priority 2021, published 2024)

Assays:
[1] = test system: CD46 cell surface expression on RPMI8226 cells; assay: CD46 cell surface expression on RPMI8226 cells by FACS / flow cytometry; format: cell-based; details: for CD46 cell surface expression (MFI, flow cytometry): RPMI8226, 7 days 37° C.; for CD46 upregulation on RPMI8226 cells: 7-day exposure to varying concentrations, FACS on day-7; for CD46 expression (FACS): RPMI8226 cells treated with IMiDs for 3 and 10 days
Procedure: Example 1: CD46 upregulation by exposure to pomalidomide and lenalidomide (FIGS. 1-2). The effect of pomalidomide and lenalidomide exposure to multiple myeloma (RPMI8226) cells was studied. RPMI8226 cells were treated with IMiDs (Pomalidomide and Lenalidomide) for 3 and 10 days (FIG. 1). CD46 expression was analyzed by FACS. CD38 was also measured as a reference. IMiDs-induced cell surface upregulation was observed only to selective antigens, e.g., CD46 but not CD38.
FACS was performed on day-7. […] FACS was performed on day-14.
FIG. 6: The multiple myeloma cell line RPMI8226 was incubated with 10 μM pomalidamide (pom) for 14 days, washed, and further incubated with 10 nM dexamethasone (dex) for 7 days. Cell surface CD46 expression was assessed by flow cytometry. MFI: median fluorescence intensity. Multiple group comparison was performed using One-way ANOVA. ** p<0.01; ****p<0.0001.
Methods: RMPI8226 cells were exposed to varying concentrations of the Stat3 inhibitor C188-9 and the glucocorticoid receptor inhibitor mifepristone for 7 days at 37° C. in culture media, and cell surface CD46 expression is detected by flow cytometry using the anti-CD46 antibody YS5 followed by AlexaFluo-617 labeled anti-human Fc secondary antibody. MFI (median fluorescence intensity) was recorded and analyzed by One-way ANOVA.

[2] = target: T1, CD46 (human, UniProt P15529 35-392); assay: flow cytometry on RPMI8226 cells with a labelled anti-human Fc secondary antibody
T1 construct: whole, on cells; also called cell surface CD46
T1 sequence (looked up): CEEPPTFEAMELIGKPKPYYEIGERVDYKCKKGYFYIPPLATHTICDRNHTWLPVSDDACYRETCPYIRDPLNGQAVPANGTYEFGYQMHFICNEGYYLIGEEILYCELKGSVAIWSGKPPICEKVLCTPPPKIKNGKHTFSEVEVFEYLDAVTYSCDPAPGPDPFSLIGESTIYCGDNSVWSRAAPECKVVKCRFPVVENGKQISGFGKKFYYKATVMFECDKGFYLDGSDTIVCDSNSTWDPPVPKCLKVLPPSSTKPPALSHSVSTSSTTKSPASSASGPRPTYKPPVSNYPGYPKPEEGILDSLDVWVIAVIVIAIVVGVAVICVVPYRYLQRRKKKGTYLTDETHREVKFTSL
Procedure: MFI (median fluorescence intensity) was recorded and analyzed by One-way ANOVA.

## COc1ccc(S(=O)(=O)Nc2cc(-c3c(O)ccc4ccccc34)c(O)c3ccccc23)cc1 [C188-9, N-(1′, 2-Dihydroxy-1,2′-binaphthalen-4′-yl)-4-methoxybenzenesulfonamide]
[1]; high concentrations (50 μM)
  CD46 cell surface expression (MFI, flow cytometry): inhibits
[1]; low/mid concentrations (10 and 20 μM)
  CD46 cell surface expression (MFI, flow cytometry): stimulates

## Nc1cccc2c1CN(C1CCC(=O)NC1=O)C2=O (stereo not drawn) [lenalidomide]
[1]
  CD46 upregulation on RPMI8226 cells: upregulation
  CD46 expression (FACS): upregulation

## CC#C[C@]1(O)CC[C@H]2[C@@H]3CCC4=CC(=O)CCC4=C3[C@@H](c3ccc(N(C)C)cc3)C[C@@]21C [mifepristone]
[1]; mifepristone at high concentrations (50 μM)
  CD46 cell surface expression (MFI, flow cytometry): inhibits

## Nc1cccc2c1C(=O)N(C1CCC(=O)NC1=O)C2=O (stereo not drawn) [pomalidomide]
[1]
  CD46 upregulation on RPMI8226 cells: upregulation
  CD46 expression (FACS): upregulation
[1]; prior exposure for a short period (7-10 days)
  CD46 upregulation on multiple myeloma cell surface: rather persistent CD46 upregulation

B1: YS5 (antibody, human IgG1, lambda, V domains shown)
VH: QVQLVQSGGGVVQPGRSLRLACAASGLTVNNYAMHWVRQAPGKGLEWVAVISYDGNNKYYADSVKGRFTISRDNSKNTLYLQMNSLRAEDTAVYYCAKGGGYFDLWGRGTLVTVSS
VL: QSVLTQPPSVSGAPGQRVTISCTGSSSNIGAGYDVHWYQQLPGTAPKLLIYGNNNRPSGVPDRFSGSKSGTSASLAITGLQAEDEADYYCSSYTSGTWLFGGGTKLTVLG
notes: The format used in the assay is not otherwise stated; also called YS5FL; anti-CD46 antibody YS5
[2]
  binding result: binds
